Here are results for five compounds from patent publication US4952577A, “Methoxymethyl penem compounds” (Farmitalia Carlo Erba S.r.l., priority 1987, dated 1990).

For orientation: MIC means the smallest concentration in the dilution series that meets the test's criterion for growth inhibition. The term ED50 denotes the dose that gives a 50% effect, or the effect in half of the subjects.

Data set [1] deals with Streptococcus pyogenes ATCC 12384. The experiment in a line: In vitro antibacterial activity (MIC). In kind it is cell-based. As to conditions: ATCC12384.
A further data set relates to P. aeruginosa ATCC 19660. Nature of the data set: In vitro antibacterial activity (MIC). In kind it is cell-based. As to conditions: Pseudomonas aeruginosa, ATCC19660.
Another data set deals with S. aureus 39/2 Pen^+. Nature of the data set: In vitro antibacterial activity (MIC). The format is cell-based. As to conditions: Staphylococcus aureus.
The test system of the next data set is S. aureus 2 MR. The experiment in a line: In vitro antibacterial activity (MIC). Particulars: Staphylococcus aureus. In kind it is cell-based.
Data set [2] deals with Salmonella typhi ATCC 14028. Nature of the data set: In vitro antibacterial activity (MIC). The format is cell-based. Particulars: Salmonella enterica, read-out: In vitro MIC.
The next data set deals with E. cloacae P99 cef. R. Nature of the data set: In vitro antibacterial activity (MIC). The format is cell-based. Particulars: Enterobacter cloacae, P99CEF.R.
The subject of the next data set is S. faecalis ATCC 6057. Nature of the data set: In vitro antibacterial activity (MIC). The format is cell-based. As to conditions: Enterococcus faecalis, ATCC6057.
Data set [3] concerns Serratia marcescens ATCC 2902. Nature of the data set: In vitro antibacterial activity (MIC). The format is cell-based. As to conditions: ATCC2902.
The test system of a further data set is E. aerogenes 225. The experiment in a line: In vitro antibacterial activity (MIC). In kind it is cell-based. As to conditions: Klebsiella aerogenes.
The test system of data set [4] is Klebsiella aerogenes 1522E. The experiment in a line: In vitro antibacterial activity (MIC). In kind it is cell-based.
Data set [5] has as its system Staphylococcus aureus Smith. Nature of the data set: Therapeutic efficacy against experimental infections in the mouse. The format is in vivo. As to conditions: sc, subcutaneous administration, therapy 2 hours after infection, read-out: ED50 (cumulative dose).
The test system of the next data set is S. faecalis 55. Nature of the data set: In vitro antibacterial activity (MIC). In kind it is cell-based. Particulars: Enterococcus faecalis.
The next data set concerns E. aerogenes F46. The experiment in a line: In vitro antibacterial activity (MIC). In kind it is cell-based. Particulars: Klebsiella aerogenes.
In another data set the test system is A. calcolaceticus N 409. The experiment in a line: In vitro antibacterial activity (MIC). The format is cell-based.
The subject of the next data set is E. coli R997 (HSM-1). Nature of the data set: In vitro antibacterial activity (MIC). In kind it is cell-based. As to conditions: Escherichia coli.
In the next data set the test system is P. vulgaris 51. The experiment in a line: In vitro antibacterial activity (MIC). Particulars: Proteus vulgaris. In kind it is cell-based.
In data set [6] the test system is S. epidermidis ATCC 12228. The experiment in a line: In vitro antibacterial activity (MIC). Particulars: Staphylococcus epidermidis, ATCC12228. The format is cell-based.
Another data set concerns P. morganii ATCC 25830. Nature of the data set: In vitro antibacterial activity (MIC). As to conditions: Morganella morganii, ATCC25830. In kind it is cell-based.
The test system of data set [7] is Staphylococcus aureus Smith. The experiment in a line: In vitro antibacterial activity (MIC). The format is cell-based.
For the next data set, the system named is P. rettgeri ATCC 925. The experiment in a line: In vitro antibacterial activity (MIC). The format is cell-based. As to conditions: Providencia rettgeri, ATCC925.
Another data set deals with C. freundii 4051 cef. R. Nature of the data set: In vitro antibacterial activity (MIC). As to conditions: Citrobacter freundii. The format is cell-based.
The test system of data set [8] is Providencia stuartii Bs 60. The experiment in a line: In vitro antibacterial activity (MIC). Particulars: BS60. In kind it is cell-based.
For data set [9], the system named is K. Aerogenes 1082 E cef. R. Nature of the data set: In vitro antibacterial activity (MIC). The format is cell-based. As to conditions: Klebsiella aerogenes.
For another data set, the system named is Escherichia coli K 12. The experiment in a line: In vitro antibacterial activity (MIC). The format is cell-based. Particulars: K12.
Another data set relates to S. faecium ATCC 8043. The experiment in a line: In vitro antibacterial activity (MIC). In kind it is cell-based. Particulars: Enterococcus faecium, ATCC8043.
Data set [10] concerns Pseudomonas aeruginosa 2598. The experiment in a line: In vitro antibacterial activity (MIC). In kind it is cell-based.
Data set [11] has as its system Shigella flexneri ATCC 11836. Nature of the data set: In vitro antibacterial activity (MIC). In kind it is cell-based. Particulars: ATCC11836.
The next data set has as its system S. aureus 5635 MR. The experiment in a line: In vitro antibacterial activity (MIC). As to conditions: Staphylococcus aureus. In kind it is cell-based.
Data set [12] concerns Enterobacter cloacae 1321E. Nature of the data set: In vitro antibacterial activity (MIC). The format is cell-based.
Data set [13] concerns Proteus mirabilis FI 7474. The experiment in a line: In vitro antibacterial activity (MIC). In kind it is cell-based. As to conditions: FI7474.
Another data set deals with Escherichia coli G. The experiment in a line: Therapeutic efficacy against experimental infections in the mouse. The format is in vivo. Particulars: therapy 0.5-1.5-6 hours after infection, read-out: ED50 (cumulative dose).
For a further data set, the system named is E. coli B cef. R. The experiment in a line: In vitro antibacterial activity (MIC). As to conditions: Escherichia coli. The format is cell-based.
For data set [14], the system named is Cirobacter freundii ATCC 8090. The experiment in a line: In vitro antibacterial activity (MIC). In kind it is cell-based.
The test system of another data set is S. salivarius ATCC 9758. Nature of the data set: In vitro antibacterial activity (MIC). Particulars: Streptococcus salivarius, ATCC9758. The format is cell-based.
Data set [15] relates to Acinetobacter calcoaceticus Bg 3. Nature of the data set: In vitro antibacterial activity (MIC). The format is cell-based. As to conditions: BG3.
Data set [16] has as its system gram-positive and gram-negative bacteria. Nature of the data set: Control and treatment of experimental infections in the mouse. The format is in vivo.
For the next data set, the system named is S. aureus 2101 MR. The experiment in a line: In vitro antibacterial activity (MIC). In kind it is cell-based. As to conditions: Staphylococcus aureus.
Data set [17] is described as follows: Pharmacokinetic parameters of prodrug esters. Particulars: mouse; last line of Table 4. In kind it is in vivo.
Another data set relates to bacterial β-lactamases. The experiment in a line: Stability towards bacterial β-lactamases. In kind it is in vitro ADME. Particulars: compared with the prior-described mixture.
Another data set relates to renal dehydropeptidases. Nature of the data set: Stability towards renal dehydropeptidases. In kind it is in vitro ADME. As to conditions: compared with the prior-described mixture.
Data set [18] in a line: Chemical stability over the whole pH-range. The format is physicochemical. Particulars: compared with the prior-described mixture.

Converted amounts (≈) assume the structure as drawn. Where two headings read alike, the source gives them in different places.

For the compound `COCC1=C(C(=O)O)N2C(=O)[C@H]([C@@H](C)O)[C@H]2S1` [5R,6S,1'R isomer], the MIC is 0.022 µg/mL (≈ 0.0848 µM) in data set [1]; greater than 25 µg/mL in the data set with P. aeruginosa ATCC 19660; 0.09 µg/mL (≈ 0.347 µM) in the data set on S. aureus 39/2 Pen^+; 3.12 µg/mL (≈ 12 µM) in the data set on S. aureus 2 MR; 0.39 µg/mL (≈ 1.5 µM) in data set [2]; 0.39 µg/mL (≈ 1.5 µM) in the data set on E. cloacae P99 cef. R.. The MIC is 1.56 µg/mL (≈ 6.02 µM) in the data set with S. faecalis ATCC 6057; 6.25 µg/mL (≈ 24.1 µM) in data set [3]; 0.78 µg/mL (≈ 3.01 µM) against E. aerogenes 225; 0.39 µg/mL (≈ 1.5 µM) in data set [4]; 3.12 µg/mL (≈ 12 µM) against S. faecalis 55; 0.78 µg/mL (≈ 3.01 µM) in the data set on E. aerogenes F46. Besides, the MIC was 6.25 µg/mL (≈ 24.1 µM) in the data set on A. calcolaceticus N 409; 0.39 µg/mL (≈ 1.5 µM) in the data set with E. coli R997 (HSM-1); 0.39 µg/mL (≈ 1.5 µM) against P. vulgaris 51; 0.09 µg/mL (≈ 0.347 µM) in data set [6]; 1.56 µg/mL (≈ 6.02 µM) with P. morganii ATCC 25830; 0.09 µg/mL (≈ 0.347 µM) in data set [7]. In addition, the MIC stood at 1.56 µg/mL (≈ 6.02 µM) in the data set on P. rettgeri ATCC 925; 6.25 µg/mL (≈ 24.1 µM) against C. freundii 4051 cef. R; 3.12 µg/mL (≈ 12 µM) in data set [8]; 0.39 µg/mL (≈ 1.5 µM) in [9]; 0.39 µg/mL (≈ 1.5 µM) in the data set with Escherichia coli K 12; 3.12 µg/mL (≈ 12 µM) in the data set with S. faecium ATCC 8043. The MIC in data set [10] is greater than 25 µg/mL; in data set [11], 0.19 µg/mL (≈ 0.733 µM); against S. aureus 5635 MR, 0.19 µg/mL (≈ 0.733 µM); in data set [12] it was 0.39 µg/mL (≈ 1.5 µM); in [13], 0.78 µg/mL (≈ 3.01 µM); with E. coli B cef. R, 0.78 µg/mL (≈ 3.01 µM). In addition, the MIC in [14] is 0.39 µg/mL (≈ 1.5 µM); against S. salivarius ATCC 9758, 0.022 µg/mL (≈ 0.0848 µM); in data set [15], 1.56 µg/mL (≈ 6.02 µM); in the data set on S. aureus 2101 MR, 3.12 µg/mL (≈ 12 µM). The ED50 in [5] worked out at 0.21 mg/kg; in the data set on Escherichia coli G (sc, subcutaneous administration) it was 6.7 mg/kg. Also, in data set [16], the “efficacy in the control and treatment of experimental infections” value was “excellent efficacy”.

On to `COCC1=C(C(=O)OCOC(C)=O)N2C(=O)[C@H]([C@@H](C)O)[C@H]2S1` [Compound 1, Acetoxymethyl (5R,6S)-6-[l(R)-Hydroxyethyl]-2-Methoxymethyl-Penem-3-Carboxylate], for which the “[drawing 32] (parameter name shown only as drawing)” value in data set [17] worked out at 7.

Regarding `COCC1=C(C(=O)OCc2oc(=O)oc2C)N2C(=O)[C@H]([C@@H](C)O)[C@H]2S1` [Compound 20, (5-Methyl-2-Oxo-1,3-Dioxolen-4-yl)Methyl (5R,6S)-6-[1(R)-Hydroxyethyl]-2-Methoxymethyl-Penem-3-Carboxylate], the “[drawing 32] (parameter name shown only as drawing)” value in [17] amounted to 7. Also, the ED50 in the data set on Escherichia coli G (oral administration) was 13.1 mg/kg.

In the case of `CC(=O)OCOC(=O)C1=C(COC(N)=O)S[C@@H]2[C@@H]([C@@H](C)O)C(=O)N12` [FCE 22891, reference compound], in [17], the “[drawing 32] (parameter name shown only as drawing)” value is on record as 6.

On to `COCC1=C(C(=O)O)N2C(=O)[C@H]([C@@H](C)O)[C@H]2S1` [compound of formula (I), (5R,6S, 1'R)-configured 6-(1-hydroxyethyl)-2-methoxymethyl-penem-3-carboxylic acid], for which the “stability towards bacterial β-lactamases” value with bacterial β-lactamases was “superior stability”. Moreover, the “stability towards renal dehydropeptidases” value with renal dehydropeptidases is given as “superior stability”. For the same compound, the chemical stability entry in data set [18] is “considerably improved chemical stability”.
